{"source": "patent US20220079915A1", "about": "“IMMUNOSUPPRESSIVE PHARMACEUTICAL COMPOSITION AND APPLICATION THEREOF” (Shanghai Archeus Biotech Co., Ltd., priority 2018, published 2022)", "key": {"[1]": {"test_system": "TNF-α", "test": "LPS-induced TNF-α secretion in THP-1 cells, ELISA of culture supernatant", "type": "cell-based, human", "conditions": "for TNF-α level, % of the positive control / TNF-α, % of the positive control level: 100 ng/mL LPS; for inhibition at 10 µM: Homo sapiens, THP-1; for TNF-α treatment value, A: relative to control, 5 μM", "protocol": "1) Recoveried and expanded THP-1 cells in a T75 culture flask. The growth medium was 10 milliliters of 10% fetal bovine serun/RPMI1640 (already containing 2 mM glutamine)/1% double antibiotics in each flask. Observed the cells under an invert microscope, and, when the cells were in the logarithmic growth phase, started the following drug treatment experiments; 2) Cultured 2*10e5/mL THP-1 cells in a 96-well culture plate with 100 microliters of growth medium (10% fetal bovine serum/RPMI640/1% double antibiotics) per well, and added 100 ng/ml PMA to incubate for 24 hour; 3) Eluted the non-adherent cells once with 300 microliters of fresh growth medium of 10% fetal bovine serum/RPMI1640/1% double antibiotics; 4) Added 200 microliters of growth medium of 10% fetal bovine serum/RPMI1640/1% double antibiotics, with/without test compound, to pre-incubate the cells at 37° C. for 2 hours; 5) Then added 100 ng/mL lipopolysaccharide (LPS) and incubated at 37° C. for 4 hours: 6) Collected 50 microliters of cell culture supernatant for the detection of the levels of related cytokines by enzyme-linked immunoassay, or stored it in a refrigerator at minus 80 degrees Celsius for future detection; 1) Prepared 1× elution buffer for enzyme-linked immunoassay. Prepared it with ultrapure water: 10× elution buffer mother solution=9:1 in volume ratio for use; 2) Prepared the antibody cocktail for enzyme-linked immunoassay. Prepared it with the antibody diluent (provided by Ab221825):antibody 1:antibody 2=18:1:1 in volume ratio for use. Antibody 1 was a TNF-α capture antibody and Antibody 2 was a TNF-α detector antibody. They were all supplied by kit Ab221825; 3) Prepared a series of concentration gradient samples of TNF-α standard with ultrapure water for the plotting of reaction standard curve and determining the linear range of detection signal; 4) Added 50 microliters of cell culture supernatant/standard and 50 microliters of the above antibody cocktail to a 96-well plate used for enzymatic reaction, sealed it with a film, placed it on a horizontal shaker, and incubated at 400 rpm for 1 hour at room temperature to allow the antibody-antigen complex was fully bound and coupled at the bottom of the well plate; 5) Discarded the supernatant, eluted with 350 microliters of 1× elution buffer/well for 3 times. In the last elution, put the well plate upside down on an absorbent paper and sucked and washed it thoroughly; 6) Added 100 microliters of TMB substrate solution (supplied by Ab221825) to each well, placed them on a horizontal shaker and incubated in the dark at room temperature for 5 minutes at a speed of 400 rpm; 7) Added 100 microliters of reaction stop solution (provided by Ab221825), placed on a horizontal shaker and mix at 400 rpm for 1 minute; 8) Detected the absorbance at 450 nm with a microplate reader."}, "[2]": {"test_system": "IL-17A", "test": "IL-17A secretion of mouse spleen Naïve CD4+ T cells induced to differentiate to Th17 cells by cytokines, ELISA", "type": "cell-based", "protocol": "1) Pre-coated the 96-well plate with 2 μg/mL anti-mouse CD3e and incubated overnight at 4 degrees Celsius: 2) Separated fresh spleens from adult C57BL/6 female mice (8-12 weeks old), ground and filtered through a […] nylon cell strainer to obtain a single cell suspension in pre-cooled DPBS; 3) Washed the spleen cells again with DPBS, and resuspended in RoboSep™ buffer at a density of 1×10^8/mL; 4) Separated primary CD4+ T cells with mouse primary CD4+ T cell isolation kit as required by the kit; 5) Resuspended the isolated CD4+ T cells in complete medium (RPMI 1640 medium+10% inactivated FBS+1% double antibiotics) at a density of 1×10^6/mL; 6) Washed the 96-well plate pre-coated with anti-mouse CD3e twice with DPBS, added 50 μL of cytokine cocktail, the composition and final concentration of which are shown in Table 6 below, and then added 50 μL of compound solution (the final concentration of DMSO was 0.1%). Added 100 μL of cell suspension to each well to allow the final cell number per well to be 1×10^5/100 μL; [table] 7) Cultured the cells for 7 days under the above conditions. The culture conditions were 37 degrees Celsius, 5% CO2 concentration; 8) After 7 days, added 1× stimulation cocktail (eBioscience 500X) to the culture medium for 4 hours, and then collected cell culture supernatant for detection with IL-17A enzyme-linked immunoassay kit; 9) Completed the detection of supernatant IL-17A concentration with mouse IL-17 DuoSet ELISA kit; 10) Read the OD450 nm absorbance value with a microplate reader, and generated the standard curve by using the 4-parameter logistic fitting (4-PL) method. 1) Diluted the capture antibody (provided in the kit) to a working concentration in PBS without carrier protein, that is, a 96-well plate can be coated with 100 microliters per well. Sealed and incubated the plate overnight at room temperature; 2) Aspirated the coating buffer of the well plate, and eluted with 400 microliters of eluent (provided in the kit) for three times, aspirating as much liquid as possible each time; 3) Added 300 microliters of diluent (provided in the kit) to each well, and equilibrated for 1 hour at room temperature; 4) Eluted the well plate as in the above step 2) to be ready for the addition of sample; ) Added 100 microliters of sample or standard to each well containing the added diluent, and sealed and incubated the well plate for 2 hours at room temperature; 6) Eluted the well plate as in the above step 2); 7) Added 100 microliters of detector antibody (provided in the kit) to each well, and sealed and incubated the well plate for 2 hours at room temperature. 8) Eluted the well plate as in the above step 2); 9) Added 100 microliters of Streptavidin-HRP working solution (provided in the kit) to each well, and sealed and incubated the well plate in dark for 20 minutes at room temperature. 10) Eluted the well plate as in the above step 2); 11) Added 100 microliters of reaction substrate solution (provided in the kit) to each well, and incubated at room temperature for 20 minutes, protected from light: 12) Added 50 microliters of stop solution (provided in the kit) to each well, and tapped the well plate to ensure that the liquid is evenly mixed; 13) Detected the optical density value of each well at […]. The values could be corrected by deducting the values at 540 nm or 570 nm."}}, "note": "Where two headings read alike, the source gives them in different places."}
{"smiles": "C=C[C@@]1(C)CC(=O)C2(O)[C@@]3(C)C(O)CCC(C)(C)C3[C@H](OC(=O)CCN(C)C)[C@H](OC(C)=O)[C@@]2(C)O1.Cl", "note": "(stereo partly shown) [6-[3-(dimethylamino)propionyl]forskolin hydrochloride]", "values": [{"measurement": "TNF-α level, % of the positive control", "setting": "[1]; 5 μM alone, FIG. 4", "result": 33, "unit": "%"}, {"measurement": "TNF-α, % of the positive control level", "setting": "[1]; 5 μM alone, FIG. 6", "result": 58, "unit": "%"}, {"measurement": "reduction in TNF-α levels", "setting": "[1]; 5 μM alone, FIG. 6", "result": 42, "unit": "%"}, {"measurement": "reduction in TNF-α level", "setting": "[1]; 5 μM used alone, FIG. 4", "result": 67, "unit": "%"}, {"measurement": "TNF-α level, % of the positive control", "setting": "[1]; 10 μM alone, FIG. 4", "result": 27, "unit": "%"}, {"measurement": "TNF-α, % of the positive control level", "setting": "[1]; 10 μM alone, FIG. 6", "result": 44, "unit": "%"}, {"measurement": "reduction in TNF-α level (inhibitory effect)", "setting": "[1]; 10 μM used alone, FIG. 4", "result": 73, "unit": "%"}, {"measurement": "inhibition at 10 µM", "setting": "[1]; 10 μM alone, FIG. 6, read-out: reduction in TNF-α levels (inhibitory effect)", "result": 56, "unit": "%"}, {"measurement": "inhibition at 10 µM", "setting": "[1]; 10 μM, 100 ng/ml LPS 4 hours, FIG. 1, read-out: inhibition of the TNF-α level of the positive control", "result": "~75", "unit": "%"}, {"measurement": "TNF-α treatment value, A", "setting": "[1]; Table 3", "result": 33, "unit": "%"}, {"measurement": "TNF-α treatment value, A", "setting": "[1]; Table 4", "result": 58, "unit": "%"}, {"measurement": "IL-17A level, % of the positive control", "setting": "[2]; 0.5 μM alone", "result": 88, "unit": "%"}, {"measurement": "reduction in IL-17A levels", "setting": "[2]; 0.5 μM used alone", "result": 12, "unit": "%"}, {"measurement": "IL-17A level, % of the positive control", "setting": "[2]; 1 μM alone", "result": 19, "unit": "%"}, {"measurement": "IL-17A, % of the basic level", "setting": "[2]; 1 μM compound alone, FIG. 10", "result": 18, "unit": "%"}, {"measurement": "inhibition at 10 µM", "setting": "[2]; Mus musculus, CD4+ T, 168 h, 10 μM, 7 days cytokine induction, FIG. 8, read-out: inhibition of the positive control IL-17A level", "result": "~97", "unit": "%"}, {"measurement": "inhibition at 1 µM", "setting": "[2]; Mus musculus, CD4+ T, 1 μM alone, FIG. 10, read-out: reduction in IL-17A levels (inhibitory effect)", "result": 81, "unit": "%"}, {"measurement": "IL-17A treatment value, A", "setting": "[2]; Table 7, relative to control, 0.5 μM", "result": 88, "unit": "%"}, {"measurement": "IL17-A treatment value, A", "setting": "[2]; Table 8, relative to control, 0.5 μM", "result": 88, "unit": "%"}]}
